Measured values as given in ChEMBL document CHEMBL1152474, “Synthesis and investigation of anti-inflammatory activity and gastric ulcerogenicity of novel nitric oxide-donating pyrazoline derivatives” (Eur J Med Chem, 2009).

What was measured:
[1] = system: Rattus norvegicus; experiment: Antiinflammatory activity in albino rat assessed as inhibition of carrageenan-induced paw edema at 100 mg/kg, po treated for 30 mins measured after 3 hrs of carrageenan challenge; format: functional
[2] = system: Rattus norvegicus; experiment: Gastrotoxicity in albino rat assessed as ulcer index at 100 mg/kg, po after 5 hrs; format: toxicity, organism-based; set-up: dose 100 mg/kg, route oral; details: in vivo
[3] = system: Rattus norvegicus; experiment: Antiinflammatory activity in albino rat assessed as inhibition of carrageenan-induced paw edema at 100 mg/kg, po treated for 30 mins measured after 2 hrs of carrageenan challenge; format: functional
[4] = system: Rattus norvegicus; experiment: Antiinflammatory activity in albino rat assessed as inhibition of carrageenan-induced paw edema at 100 mg/kg, po treated for 30 mins measured after 1 hr of carrageenan challenge; format: functional
[5] = Induction of NO release per mol of compound in phosphate buffer at pH 7.4 at 100 uM after 6 hrs by Griess assay; format: physicochemical; details: pH 7.4, 6 h
[6] = Induction of NO release per mol of compound in phosphate buffer at pH 7.4 at 100 uM after 4 hrs by Griess assay; format: physicochemical; details: pH 7.4, 4 h
[7] = system: Rattus norvegicus; experiment: Reduction in 1-(2-Bromoacetyl)-5-(2,6-dichlorophenyl)-4,5-dihydro-3-(4-methoxyphenyl)-1H-pyrazole-induced ulcer in albino rat at 100 mg/kg, po after 5 hrs; format: functional; set-up: scale not given: the % may be the effect or the level left
[8] = Induction of NO release per mol of compound in phosphate buffer at pH 7.4 at 100 uM after 3 hrs by Griess assay; format: physicochemical; details: pH 7.4, 3 h
[9] = Induction of NO release per mol of compound in phosphate buffer at pH 7.4 at 100 uM after 1 hr by Griess assay; format: physicochemical; details: pH 7.4, 1 h
[10] = system: Rattus norvegicus; experiment: Reduction in 5-(2,6-Dichlorophenyl)-4,5-dihydro-3-(4-methoxyphenyl)-1H-pyrazole-induced ulcer in albino rat at 100 mg/kg, po after 5 hrs; format: functional; set-up: scale not given: the % may be the effect or the level left
[11] = Induction of NO release in phosphate buffer at pH 1 at 100 uM by Griess assay; format: physicochemical; details: pH 1, 100 µM
[12] = Induction of NO release per mol of compound in phosphate buffer at pH 7.4 at 100 uM after 5 hrs by Griess assay; format: physicochemical; details: pH 7.4, 5 h
[13] = Induction of NO release per mol of compound in phosphate buffer at pH 7.4 at 100 uM after 2 hrs by Griess assay; format: physicochemical; details: pH 7.4, 2 h
[14] = system: Rattus norvegicus; experiment: Reduction in 1-(2-Bromoacetyl)-5-(2-furyl)-4,5-dihydro-3-(3,4-dimethoxyphenyl)-1H-pyrazole-induced ulcer in albino rat at 100 mg/kg, po after 5 hrs; format: functional; set-up: scale not given: the % may be the effect or the level left
[15] = system: Rattus norvegicus; experiment: Reduction in 5-(2-furyl)-4,5-dihydro-3-(3,4-dimethoxyphenyl)-1H-pyrazole-induced ulcer in albino rat at 100 mg/kg, po after 5 hrs; format: functional; set-up: scale not given: the % may be the effect or the level left
[16] = system: Rattus norvegicus; experiment: Reduction in 1-(2-Bromopropionyl)-4,5-dihydro-5-(2,4-dimethoxyphenyl)-3-(3,4-dimethoxyphenyl)-1H-pyrazole-induced ulcer in albino rat at 100 mg/kg, po after 5 hrs; format: functional; set-up: scale not given: the % may be the effect or the level left
[17] = system: Rattus norvegicus; experiment: Reduction in 4,5-Dihydro-5-(2,4-dimethoxyphenyl)-3-(3,4-dimethoxyphenyl)-1H-pyrazole-induced ulcer in albino rat at 100 mg/kg, po after 5 hrs; format: functional; set-up: scale not given: the % may be the effect or the level left
[18] = system: Rattus norvegicus; experiment: Reduction in 1-(2-Bromoacetyl)-4,5-dihydro-5-(2,4-dimethoxyphenyl)-3-(3,4-dimethoxyphenyl)-1H-pyrazole-induced ulcer in albino rat at 100 mg/kg, po after 5 hrs; format: functional; set-up: scale not given: the % may be the effect or the level left
[19] = system: Rattus norvegicus; experiment: Reduction in 1-(2-Bromopropionyl)-5-(2-furyl)-4,5-dihydro-3-(3,4-dimethoxyphenyl)-1H-pyrazole-induced ulcer in albino rat at 100 mg/kg, po after 5 hrs; format: functional; set-up: scale not given: the % may be the effect or the level left

| NO release [5] | NO release [6] | NO release [8] | NO release [9] | Activity [11] | NO release [12] | NO release [13] | Compound | inhibition in vivo at 100 mg/kg [1] | UI [2] | inhibition in vivo at 100 mg/kg [3] | inhibition in vivo at 100 mg/kg [4] | Activity [7] | Activity [10] | Activity [14] | Activity [15] | Activity [16] | Activity [17] | Activity [18] | Activity [19] |
| --- | --- | --- | --- | --- | --- | --- | --- | --- | --- | --- | --- | --- | --- | --- | --- | --- | --- | --- | --- |
| – | – | – | – | – | – | – | COc1ccc(C2=NNC(c3c(Cl)cccc3Cl)C2)cc1 (stereo not drawn) | 60% | 31 | 58% | 54% | – | – | – | – | – | – | – | – |
| 0.593 mol/mol | 0.451 mol/mol | 0.356 mol/mol | 0.195 mol/mol | Not Active | 0.656 mol/mol | 0.295 mol/mol | COc1ccc(C2=NN(C(=O)CO[N+](=O)[O-])C(c3c(Cl)cccc3Cl)C2)cc1 (stereo not drawn) | 52% | 0 | 42% | 34% | 93% | 96% | – | – | – | – | – | – |
| – | – | – | – | – | – | – | COc1ccc(C2CC(c3ccc(OC)c(OC)c3)=NN2C(=O)C(C)Br)c(OC)c1 (stereo not drawn) | 69% | 23 | 63% | 58% | – | – | – | – | – | – | – | – |
| 0.267 mol/mol | 0.167 mol/mol | 0.138 mol/mol | 0.118 mol/mol | Not Active | 0.277 mol/mol | 0.128 mol/mol | COc1ccc(C2=NN(C(=O)CNc3ccc(/C(C)=N/O)cc3)C(c3ccco3)C2)cc1OC (stereo not drawn) | 46% | 0 | 46% | 38% | – | – | 92% | 96% | – | – | – | – |
| 0.09 mol/mol | 0.128 mol/mol | 0.438 mol/mol | 0.098 mol/mol | Not Active | 0.065 mol/mol | 0.16 mol/mol | COc1ccc(C2CC(c3ccc(OC)c(OC)c3)=NN2C(=O)C(C)O[N+](=O)[O-])c(OC)c1 (stereo not drawn) | 56% | 3 | 61% | 44% | – | – | – | – | 86% | 57% | – | – |
| – | – | – | – | – | – | – | COc1ccc(C2=NN(C(=O)CBr)C(c3c(Cl)cccc3Cl)C2)cc1 (stereo not drawn) | 7% | 6 | 49% | 43% | – | – | – | – | – | – | – | – |
| 0.625 mol/mol | 0.555 mol/mol | 0.516 mol/mol | 0.147 mol/mol | Not Active | 0.738 mol/mol | 0.395 mol/mol | COc1ccc(C2=NN(C(=O)CO[N+](=O)[O-])C(c3c(Cl)cccc3Cl)C2)cc1OC (stereo not drawn) | 58% | 4 | 49% | 40% | – | – | – | – | – | – | – | – |
| – | – | – | – | – | – | – | COc1ccc(C2=NN(C(=O)C(C)Br)C(c3c(Cl)cccc3Cl)C2)cc1OC (stereo not drawn) | 60% | 10 | 56% | 51% | – | – | – | – | – | – | – | – |
| – | – | – | – | Not Active | – | – | COc1ccc(C2=NNC(c3ccco3)C2)cc1OC (stereo not drawn) | 60% | 26.5 | 53% | 45% | – | – | – | – | – | – | – | – |
| – | – | – | – | Not Active | – | – | COc1ccc(C2=NN(C(=O)CBr)C(c3ccco3)C2)cc1OC (stereo not drawn) | 51% | 13 | 46% | 38% | – | – | – | – | – | – | – | – |
| 0.268 mol/mol | 0.194 mol/mol | 0.148 mol/mol | 0.137 mol/mol | Not Active | 0.302 mol/mol | 0.114 mol/mol | COc1ccc(C2CC(c3ccc(OC)c(OC)c3)=NN2C(=O)CNc2ccc(/C(C)=N/O)cc2)c(OC)c1 (stereo not drawn) | 46% | 2 | 44% | 27% | – | – | – | – | – | 71% | 93% | – |
| – | – | – | – | – | – | – | COc1ccc(C2=NNC(c3c(Cl)cccc3Cl)C2)cc1OC (stereo not drawn) | 58% | 3 | 49% | 26% | – | – | – | – | – | – | – | – |
| – | – | – | – | – | – | – | COc1ccc2c(c1)c(CC(=O)O)c(C)n2C(=O)c1ccc(Cl)cc1 [INDOMETHACIN] | 82% | 43.5 | 67% | 58% | – | – | – | – | – | – | – | – |
| – | – | – | – | – | – | – | COc1ccc(C2CC(c3ccc(OC)c(OC)c3)=NN2C(=O)CBr)c(OC)c1 (stereo not drawn) | 71% | 30 | 67% | 53% | – | – | – | – | – | – | – | – |
| – | – | – | – | – | – | – | COc1ccc(C2=NN(C(=O)C(C)Br)C(c3ccco3)C2)cc1OC (stereo not drawn) | 42% | 10 | 36% | 22% | – | – | – | – | – | – | – | – |
| – | – | – | – | – | – | – | COc1ccc(C2=NN(C(=O)CBr)C(c3c(Cl)cccc3Cl)C2)cc1OC (stereo not drawn) | 69% | 3 | 58% | 48% | – | – | – | – | – | – | – | – |
| 0.114 mol/mol | 0.255 mol/mol | 0.501 mol/mol | 0.123 mol/mol | Not Active | 0.145 mol/mol | 0.19 mol/mol | COc1ccc(C2=NN(C(=O)C(C)O[N+](=O)[O-])C(c3c(Cl)cccc3Cl)C2)cc1OC (stereo not drawn) | 55% | 7 | 53% | 47% | – | – | – | – | – | – | – | – |
| 0.588 mol/mol | 0.523 mol/mol | 0.433 mol/mol | 0.329 mol/mol | Not Active | 0.78 mol/mol | 0.391 mol/mol | COc1ccc(C2CC(c3ccc(OC)c(OC)c3)=NN2C(=O)CO[N+](=O)[O-])c(OC)c1 (stereo not drawn) | 58% | 5 | 48% | 38% | – | – | – | – | – | 28% | 83% | – |
| 0.087 mol/mol | 0.2 mol/mol | 0.398 mol/mol | 0.078 mol/mol | Not Active | 0.125 mol/mol | 0.19 mol/mol | COc1ccc(C2=NN(C(=O)C(C)O[N+](=O)[O-])C(c3ccco3)C2)cc1OC (stereo not drawn) | 42% | 7 | 39% | 35% | – | – | – | 73% | – | – | – | 30% |
| 0.535 mol/mol | 0.483 mol/mol | 0.281 mol/mol | 0.126 mol/mol | Not Active | 0.614 mol/mol | 0.211 mol/mol | COc1ccc(C2=NN(C(=O)CO[N+](=O)[O-])C(c3ccco3)C2)cc1OC (stereo not drawn) | 43% | 2 | 37% | 32% | – | – | 84% | 92% | – | – | – | – |
| – | – | – | – | – | – | – | COc1ccc(C2CC(c3ccc(OC)c(OC)c3)=NN2)c(OC)c1 (stereo not drawn) | 42% | 7 | 39% | 38% | – | – | – | – | – | – | – | – |
